From paper PMC10067601, “Identification of a peptide ligand for human ALDH3A1 through peptide phage display: Prediction and characterization of protein interaction sites and inhibition of ALDH3A1 enzymatic activity” (Frontiers in Molecular Biosciences, 2023)
“Also recorded” adds a separate entry of the source.

How the values were obtained:
[1] = target: T1, human recombinant ALDH3A1 (Homo sapiens, UniProt P30838); assay: Peptide ELISA, P1 coated, serially diluted ALDH3A1; format: binding
T1 construct: 6xHis (C); made in house; host or cells: E. coli, with chaperone co-expression (pG-KJE8 plasmid)
T1 sequence (P30838 1-453): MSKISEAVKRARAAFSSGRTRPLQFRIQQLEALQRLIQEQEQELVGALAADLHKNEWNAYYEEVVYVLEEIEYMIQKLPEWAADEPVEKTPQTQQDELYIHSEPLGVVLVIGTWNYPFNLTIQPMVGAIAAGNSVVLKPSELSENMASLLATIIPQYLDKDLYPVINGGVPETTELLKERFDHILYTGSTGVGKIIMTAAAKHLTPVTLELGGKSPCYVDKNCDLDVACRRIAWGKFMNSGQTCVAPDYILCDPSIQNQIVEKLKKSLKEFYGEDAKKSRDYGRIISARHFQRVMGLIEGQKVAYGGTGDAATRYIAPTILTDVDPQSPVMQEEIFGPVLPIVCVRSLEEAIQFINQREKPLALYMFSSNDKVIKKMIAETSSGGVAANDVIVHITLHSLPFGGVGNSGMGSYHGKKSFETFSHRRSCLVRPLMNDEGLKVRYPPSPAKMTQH
Method: An ELISA with the synthetic peptide P1 was performed as described ([Thermo Scientific, 2010]). P1 (50 μg/mL) diluted in Coating Buffer (0.2 M sodium carbonate/bicarbonate, pH 9.4) was coated overnight at 4°C under agitation. After three washes with TBST (25 mM Tris, 0.15 M sodium chloride, pH 7.2 containing 0.1% Tween 20), the wells were blocked with 300 μL per well with Blocking Buffer (TBST containing 4% w/v BSA) overnight at 4°C under agitation. After another three washes with TBST, 100 μL of 2-fold serial dilutions of ALDH3A1 in Blocking Buffer were added in each well and the plate was incubated for 1 h at RT under gentle agitation. Following four washes with TBST, 100 μL of rabbit anti-ALDH3A1 antibody, diluted 1:1,000 in Blocking Buffer, were added and the plate was incubated for 2 h at RT under gentle agitation. After the plate was washed 4 times with TBST, it was incubated with 100 μL of anti-rabbit IgG horseradish-peroxidase conjugated and diluted 1:5,000 in Blocking Buffer, for 2 h at RT. Then, the plate was washed 6 times with TBST, and 100 μL of ABTS [2,2′-azino-bis(3-ethylbenzothiazoline-6-sulfonic acid)] solution (ready-to-use) were added. After 1 h of incubation in darkness at RT under agitation, the plate was measured at 405 nm, with wavelength correction at 650 nm, using an ELISA plate reader (EnSpire Multimode Plate Reader, Perkin Elmer, Waltham, MA, United States). During wash steps, liquids were dispersed in the sink, the plate was tapped vigorously on a paper towel, refilled with Wash Buffer, and incubated for 5 min at RT under agitation.
Next, peptide ELISA was performed to test whether the synthetic peptide P1 interacts with the hALDH3A1 protein. Specifically, P1 was coated in abundance in a 96-well plate and subsequently, hALDH3A1 was added to each well in serial dilutions. For detecting the putative peptide/ALDH3A1 interaction a rabbit anti-ALDH3A1 antibody along with a secondary horseradish peroxidase-conjugated anti-rabbit antibody were used in a sandwich ELISA. In each step, the excessive, unbound ALDH3A1 or antibody was removed through repetitive washes, while a ready-to-use ABTS solution was used as a colorimetric substrate for detecting the presence of horseradish peroxidase activity.

[2] = target: T1, human recombinant ALDH3A1; assay: ALDH3A1 enzymatic assay, benzaldehyde oxidation; format: biochemical; conditions: for Enzymatic Activity, AVERAGE %: mean of triplicates, STDEV % in r34
Method: The ability of ALDH3A1 to oxidize benzaldehyde in the presence of P1 was estimated by monitoring the production of NADH as described earlier with minor modifications ([Voulgaridou et al., 2013]). Human recombinant ALDH3A1 was combined with P1 and diluted in Milli-Q water, at 1:1,000. The final reaction was placed in a 0.5 mL quartz cuvette containing 50 mM Tris-HCl pH 8.5, 50 mM 2-Mercaptoethanol, 1.5 mM […], 20 nM ALDH3A1, 20 μM P1, and 1 mM Benzaldehyde. The reaction was initiated by the addition of the benzaldehyde substrate and was monitored at 340 nm for 5 min using a spectrophotometer (Libra S22, Biochrom Ltd, Cambridge, United Kingdom). In the case of CB29, the final reaction contained 40 μM CB29. Enzymatic activity was calculated as dOD/dT∗molarextinctioncoeiffcient∗pathcorrection∗enzyme^′sconcentrationinfinalreaction where, dT = minutes, molar extinction coefficient = 6220 M^-1/cm, path correction = 1 cm.
All experiments were conducted in triplicates and presented as % of the control’s enzymatic activity. As a control, the final reaction contained the respective Milli-Q water volume without P1 or CB29.
At least three independent experiments were performed for each condition tested. The values are expressed as the mean ± standard deviation (SD). Statistical analysis was performed with Graph Pad Prism software (version 9.4.1) (Graph Pad Inc., La Jolla, CA, United States). For all assays, statistical differences between groups were evaluated either by Student’s t-test or ANOVA, for multiple comparisons, followed by Dunnett’s or Tukey’s test. A level of p < 0.01 was considered statistically significant.

[3] = X is log(dilution of ALDH3A1), P1 50 μg/ml coated
[4] = 20 μM P1 (n = 4) or 40 μM CB29 (n = 3)

Sequence: WPTYVSPFRSPP [P1, …, prevailing 12-mer phage display peptide, synthesised by Genecust]
- Bottom, 95% CI (profile likelihood) ([1]; 4PL fit, P1 50 μg/ml coated): -0,6000 to 0,3171
- HillSlope, 95% CI (profile likelihood) ([1]; 4PL fit, P1 50 μg/ml coated): 0,7500 to 2,101
- LogIC50, 95% CI (profile likelihood) ([1]; 4PL fit, P1 50 μg/ml coated): -2,813 to -1,638
- R squared (4PL fit) ([1]; 4PL fit, P1 50 μg/ml coated): 0.9777
- Top, 95% CI (profile likelihood) ([1]; 4PL fit, P1 50 μg/ml coated): 0,5633 to 0,6007
- Binding of P1 to ALDH3A1 ([1]; P1 50 μg/mL coated, 2-fold serial dilutions of ALDH3A1, 405 nm-650 nm): ALDH3A1 dose-dependent increase in absorbance was observed, indicating the specific binding of P1 to ALDH3A1; also recorded: confirmed the interaction of ALDH3A1 with the synthetic peptide P1 in a concentration-dependent manner
- Bottom (4PL fit) ([1]; Sigmoidal, 4PL, X is log(dilution of ALDH3A1), P1 50 μg/ml coated): 0.2386
- Top (4PL fit) ([1]; Sigmoidal, 4PL, X is log(dilution of ALDH3A1), P1 50 μg/ml coated, OD 405nm - 650nm): 0.5773
- HillSlope (4PL fit) [1, 3]: 1.408
- LogIC50 (4PL fit) [1, 3]: -1.813
- Span (4PL fit) [1, 3]: 0.3387
- Enzymatic activity, % of control, AVERAGE of experiments ([2]; 20 μM P1 (4 experiments) or 40 μM CB29 (3 experiments), 1 mM benzaldehyde, 20 nM ALDH3A1, pH 8.5, 340 nm, 5 min): 53.6795%
- 25% Percentile, % of control activity [2, 4]: 48.44
- 75% Percentile, % of control activity [2, 4]: 60.33
- Lower 95% CI of mean, % of control activity [2, 4]: 43.07
- Maximum, % of control activity [2, 4]: 63.01
- Mean, % of control activity [2, 4]: 53.68
- Median, % of control activity [2, 4]: 52.27
- Minimum, % of control activity [2, 4]: 47.18
- Upper 95% CI of mean, % of control activity [2, 4]: 64.29
- Reduction in hALDH3A1 activity against benzaldehyde ([2]; 20 μM P1, 20 nM ALDH3A1, 1 mM benzaldehyde, 50 mM Tris-HCl pH 8.5, 50 mM 2-mercaptoethanol, NADH at 340 nm, 5 min, vs control): ~50%
- Enzymatic activity, % of control (Mean%) ([2]; 20 μM P1, P1 Experiment 1, mean of n = 3, 1 mM benzaldehyde, 20 nM ALDH3A1, pH 8.5, 340 nm): 52.2857%
- Enzymatic activity, % of control (Mean%) ([2]; 20 μM P1, P1 Experiment 2, mean of n = 3, 1 mM benzaldehyde, 20 nM ALDH3A1, pH 8.5, 340 nm): 63.0078%
- Enzymatic activity, % of control (Mean%) ([2]; 20 μM P1, fourth experiment line of Sheet6, mean of n = 3, 1 mM benzaldehyde, 20 nM ALDH3A1, pH 8.5, 340 nm): 47.1765%
- Enzymatic activity, % of control (Mean%) ([2]; 20 μM P1, third experiment line of Sheet6, mean of n = 3, 1 mM benzaldehyde, 20 nM ALDH3A1, pH 8.5, 340 nm): 52.2481%
- Effectiveness of inhibition compared with CB29 ([2]; 20 μM P1 vs 40 μM CB29, benzaldehyde): comparable to the inhibition capacity of the known hALD3A1 inhibitor CB29; also recorded: comparable with the inhibition caused by the CB29 molecule
- 95,00% CI of diff, control vs. compound ([2]; Dunnett's multiple comparisons, 20 μM P1 or 40 μM CB29): 37,24 to 55,40
- Mean Diff, control vs. compound ([2]; Dunnett's multiple comparisons, 20 μM P1 or 40 μM CB29, % of control activity): 46.32
- Enzymatic Activity, AVERAGE % ([2]; Experiment 3, 20μM P1, % of control (control = 100)): 52.2481%
- Enzymatic Activity, AVERAGE of triplicates ([2]; Experiment 3, 20μM P1, mean of triplicates, STDEV in r31): 7.566 µmol/min/mg
- Enzymatic Activity, AVERAGE % ([2]; Experiment 4, 20μM P1, % of control (control = 100)): 47.1765%
- Enzymatic Activity, AVERAGE of triplicates ([2]; Experiment 4, 20μM P1, mean of triplicates, STDEV in r31): 9.945 µmol/min/mg
- Enzymatic Activity, AVERAGE of triplicates ([2]; P1 Experiment 1, 20 μM, mean of n = 3): 7.9584 µmol/min/mg
- Enzymatic Activity, AVERAGE of triplicates ([2]; P1 Experiment 2, 20 μM, mean of n = 3): 11.9878 µmol/min/mg
